Laboratory results taken from PMC11879280, “Antimicrobial activity of peptoids against Metallo-β-lactamase-producing Klebsiella pneumoniae, Acinetobacter baumannii, Pseudomonas aeruginosa, and other WHO priority pathogens, including Candida auris” (Journal of Applied Microbiology, 2025).
Like-named read-outs stand apart in the source and are kept apart here. Square brackets hold non-standard residues; d marks the D form. Peptide text beside a SMILES is read from it. Nspe(4-Br) = C[C@H](NCC(=O)O)c1ccc(Br)cc1; Nspe = C[C@H](NCC(=O)O)c1ccccc1; Nlys = NCCCCNCC(=O)O

Assays:
[1] = test system: ESKAPEE pathogens (all bacteria); test: Geometric mean MIC, therapeutic index and selectivity ratio, all bacteria; format: cell-based; details: across the 23 ESKAPEE strains
Method: (§1) Briefly, bacteria were suspended in cation-adjusted Mueller–Hinton broth (CAMHB; Oxoid, UK) for antibiotics, or MHB (Oxoid, UK) for peptidomimetics to obtain 5 × 10^5 colony forming unit (CFU) ml^−1. […] Positive controls contained only microbes, and blanks contained only media. Microbial suspensions (100 µl) were added to wells, plates wrapped, and incubated at 37°C, 120 rpm for 16–20 h. After incubation, suspensions were removed, log10 diluted, and plated on Trypticase Soya Agar with phosphatidylcholine and Tween 80 to determine minimum bactericidal or fungicidal concentration (MBC or MFC). […] Geometric mean MIC of the peptoids were calculated to evaluate the broad overview of antimicrobial activity across the pathogens.
(§2) The therapeutic indices (TIs) of the compounds were calculated with the use of following formula: […]

[2] = test system: Enterobacteriaceae; test: Geometric mean MIC, therapeutic index and selectivity ratio, Enterobacteriaceae; format: cell-based; details: Enterobacteriaceae (E. coli, K. pneumoniae, and E. aerogenes)
Method: as §1, §2

[3] = test system: C. auris CBS10913
[4] = test system: MBL-producing bacteria; test: Geometric mean MIC, therapeutic index and selectivity ratio, MBL-producing bacteria; format: cell-based
Method: as §1
The test was performed as per the manufacturer’s instructions. Briefly, the strips were applied to a lawn culture of bacteria maintained at 1.5 × 10^8 CFU ml^−1 on Mueller–Hinton agar (Oxoid, UK) and incubated for 20 h at 37°C.
as §2

[5] = test system: horse red blood cells (RBCs); test: Haemolysis assay; format: cell-based
Method: The haemolytic activity of the peptidomimetics was performed to determine mammalian cell safety. This assay used horse red blood cells (RBCs) (Sigma–Aldrich, USA) as described previously (Willcox et al. [2008], Chongsiriwatana et al. [2017], Yasir et al. [2019b]). RBCs were washed three times with PBS at 470 g for 5 min. Peptoids (0.5–250 μg ml^−1) were prepared in PBS and added to washed RBCs, then incubated at 37°C for 4 h. After incubation, cells were centrifuged at 1057 g for 10 min, and the supernatant’s OD at 540 nm was measured for lysis. PBS-only RBCs served as the negative control (no haemolysis), and Milli-Q water-treated RBCs as the positive control (100% lysis). Percent haemolysis was calculated as: (ODT − ODNC)/(ODPC − ODNC) × 100, where ODT, ODNC, and ODPC are the absorbances of the test, negative, and positive controls, respectively. This experiment was performed in triplicate.

[6] = test system: S. aureus 117
Method: as §1

[7] = test system: P. aeruginosa AR-1270
Method: as §1

[8] = test system: Enteroc. faecalis NCTC 13 379
Method: as §1

[9] = test system: En. cloacae 001
Method: as §1

[10] = test system: K. pneumoniae JIE2713
Method: as §1

[11] = test system: E. coli 0011
Method: as §1

[12] = test system: A. baumannii 006
Method: as §1

[13] = test system: K. pneumoniae JIE4212
Method: as §1

[14] = test system: A. baumannii 005
Method: as §1

[15] = test system: A. baumannii ATCC 19 606
Method: as §1

[16] = test system: En. cloacae 005
Method: as §1

[17] = test system: S. aureus 38
Method: as §1

[18] = test system: S. aureus 105
Method: as §1

[19] = test system: C. auris CBS12373; test: Broth microdilution MIC; format: cell-based, Candida auris
[20] = CBS 10 913, RPMI 1640 with MOPS, 5 × 10^3 CFU ml^−1, ≥90% reduction (≥50% for fluconazole)
[21] = horse RBCs in PBS, 37°C, 4 h, value in brackets
[22] = P. aeruginosa AR-1270, MHB (melimine/Mel4 with 0.2% BSA, 0.01% acetic acid), mean MIC
[23] = Enteroc. faecalis NCTC 13 379, MHB (melimine/Mel4 with 0.2% BSA, 0.01% acetic acid), mean MIC
[24] = En. cloacae 001, MHB (melimine/Mel4 with 0.2% BSA, 0.01% acetic acid), mean MIC
[25] = K. pneumoniae JIE2713, MHB (melimine/Mel4 with 0.2% BSA, 0.01% acetic acid), mean MIC
[26] = E. coli 0011, MHB (melimine/Mel4 with 0.2% BSA, 0.01% acetic acid), mean MIC
[27] = A. baumannii 006, MHB (melimine/Mel4 with 0.2% BSA, 0.01% acetic acid), mean MIC
[28] = K. pneumoniae JIE4212, MHB (melimine/Mel4 with 0.2% BSA, 0.01% acetic acid), mean MIC
[29] = A. baumannii 005, MHB (melimine/Mel4 with 0.2% BSA, 0.01% acetic acid), mean MIC
[30] = A. baumannii ATCC 19 606, MHB (melimine/Mel4 with 0.2% BSA, 0.01% acetic acid), mean MIC
[31] = S. aureus 105, MHB (melimine/Mel4 with 0.2% BSA, 0.01% acetic acid), mean MIC
[32] = CBS 12 373, RPMI 1640 with MOPS, 5 × 10^3 CFU ml^−1, ≥90% reduction (≥50% for fluconazole)

Row | SMILES | Geometric mean MIC, all bacteria [1] [µg/mL] | Geometric mean MIC, all bacteria ([1]; value in brackets) [µM] | Geometric mean MICE [2] [µg/mL] | MIC against C. auris [3, 20] [µg/mL] | MIC against C. auris ([3]; CBS10913) [µM] | Geometric mean MICMBL [4] [µg/mL] | HD10 (10% haemolytic dose) ([5]; red cells of horse, 4 h) [µg/mL] | HD50 (50% haemolytic dose) ([5]; red cells of horse, 4 h) [µg/mL] | MIC of peptidomimetics [6]; 117 | MIC of peptidomimetics [7, 22] [µg/mL] | MIC of peptidomimetics [8, 23] [µg/mL] | MIC of peptidomimetics [9] [µM] | MIC of peptidomimetics [9, 24] [µg/mL] | MIC of peptidomimetics [10, 25] [µg/mL] | MIC of peptidomimetics [11]; 0011 [µM] | MIC of peptidomimetics [11, 26] [µg/mL] | MIC of peptidomimetics [12]; 006 [µM] | MIC of peptidomimetics [12, 27] [µg/mL] | MIC of peptidomimetics [13, 28] [µg/mL] | MIC of peptidomimetics [14]; 005 [µM] | other results
1 | C[C@@H](c1ccccc1)N(CC(N)=O)C(=O)CN(C(=O)CN(CCCCN)C(=O)CN(C(=O)CN(C(=O)CN(CCCCN)C(=O)CN(C(=O)CN(C(=O)CN(CCCCN)C(=O)CN(C(=O)CN(C(=O)CNCCCCN)[C@@H](C)c1ccccc1)[C@@H](C)c1ccccc1)[C@@H](C)c1ccccc1)[C@@H](C)c1ccccc1)[C@@H](C)c1ccccc1)[C@@H](C)c1ccccc1)[C@@H](C)c1ccccc1 [TM1] (H-[Nlys][Nspe][Nspe][Nlys][Nspe][Nspe][Nlys][Nspe][Nspe][Nlys][Nspe][Nspe]-NH2) | 13.0 | 7.2 | 23.7 | 15.6 | 8.6 | 11.0 | 8 | 44.8 | 7.8 µg/mL | 31.3 | 31.3 | 8.6 | 15.6 | 62.5 | 17.2 | 31.3 | 2.1 | 3.9 | 15.6 | 2.1 | HD10 (10% haemolytic dose) [5, 21]: 4.4 µmol/L; HD50 (50% haemolytic dose) [5, 21]: 24.6 µmol/L; MIC of peptidomimetics ([7]; P. aeruginosa AR-1270, value in brackets): 17.2 µM; MIC of peptidomimetics ([8]; Enteroc. faecalis NCTC 13 379, value in brackets): 17.2 µM; MIC of peptidomimetics ([10]; K. pneumoniae JIE2713, value in brackets): 34.4 µM; MIC of peptidomimetics ([13]; K. pneumoniae JIE4212, value in brackets): 8.6 µM; MIC of peptidomimetics [14, 29]: 3.9 µg/mL; MIC of peptidomimetics [15, 30]: 3.9 µg/mL; MIC of peptidomimetics ([15]; ATCC 19): 2.1 µM; MIC of peptidomimetics [16]: 8.6 µM; MIC of peptidomimetics ([16]; En. cloacae 005, MHB (melimine/Mel4 with 0.2% BSA, 0.01% acetic acid), mean MIC): 15.6 µg/mL; MIC of peptidomimetics [17]; 38: 7.8 µg/mL; MIC of peptidomimetics [18]; 105: 2.1 µM; MIC of peptidomimetics [18, 31]: 3.9 µg/mL; MIC against C. auris [19, 32]: 3.9 µg/mL; MIC against C. auris ([19]; CBS12373): 2.1 µM
2 | C[C@@H](c1ccc(Br)cc1)N(CC(N)=O)C(=O)CN(C(=O)CN(CCCCN)C(=O)CN(C(=O)CN(C(=O)CNCCCCN)[C@@H](C)c1ccccc1)[C@@H](C)c1ccc(Br)cc1)[C@@H](C)c1ccccc1 [TM2] (H-[Nlys][Nspe][Nspe(4-Br)][Nlys][Nspe][Nspe(4-Br)]-NH2) | 26.1 | 24.2 | 58.3 | 31.25 | 29 | 28.7 | 20 | 64 | 7.2 µM | 31.3 | 31.3 | 29.0 | 31.3 | 125 | 58.1 | 62.5 | 7.2 | 7.8 | 62.5 | 7.2 | HD10 (10% haemolytic dose) [5]: 18.6 µmol/L; HD50 (50% haemolytic dose) [5]: 59.5 µmol/L; MIC of peptidomimetics ([6]; S. aureus 117, MHB (melimine/Mel4 with 0.2% BSA, 0.01% acetic acid), mean MIC): 7.8 µg/mL; MIC of peptidomimetics ([7]; AR-1270): 29.0 µM; MIC of peptidomimetics ([8]; NCTC 13): 29.0 µM; MIC of peptidomimetics ([10]; JIE2713): 116.2 µM; MIC of peptidomimetics ([13]; JIE4212): 58.1 µM; MIC of peptidomimetics [14, 29]: 7.8 µg/mL; MIC of peptidomimetics [15, 30]: 31.3 µg/mL; MIC of peptidomimetics ([15]; ATCC 19): 29.0 µM; MIC of peptidomimetics [16]: 15.6 µg/mL; MIC of peptidomimetics [17]; 38: 7.2 µM; MIC of peptidomimetics ([17]; S. aureus 38, MHB (melimine/Mel4 with 0.2% BSA, 0.01% acetic acid), mean MIC): 7.8 µg/mL; MIC of peptidomimetics [18]; 105: 7.2 µM; MIC of peptidomimetics [18, 31]: 7.8 µg/mL; MIC against C. auris [19, 32]: 3.9 µg/mL; MIC against C. auris ([19]; CBS12373): 3.6 µM
